Experiments:
[1] = system: human prostate cancer LNCaP cells; assay: Cytotoxic action on LNCaP cells (WST-8, 96 hr); type: cell-based; details: 96 hr culture
Method in brief: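 IC50 values reflect 50% cell survival relative to untreated cells, interpolated linearly between the two concentrations that bracket it. Survival was read by WST-8 after 96 hr of compound treatment of cells grown in 10% FBS/RPMI1640 at 37° C.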

BRD4 protein = BRD4 protein (Homo sapiens (Human), UniProt O60885); assay: BRD4 protein degradation inducing action in LNCaP cells (immunofluorescence, 6 hr); type: cell-based; details: anti-BRD4 fluorescence intensity
Method in brief: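 Read-out is BRD4 immunofluorescence intensity (560/572 nm) after 6 hr compound treatment of LNCaP cells in 10% FBS/RPMI1640, with fixation, permeabilization and anti-BRD4 staining. Linear interpolation between the two concentrations flanking 50% of untreated intensity gives DC50.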

SMILES | DC50 (BRD4 protein) [nM] | IC50 [1] [nM]
Cc1sc2c(c1C)C(c1ccc(-c3ccc(C(=O)NCc4ccc(S(=O)(=O)Nc5ccc(C)c6c(C#N)c[nH]c56)cc4)cc3)cc1)=N[C@@H](CC(=O)OC(C)(C)C)c1nnc(C)n1-2 [Example 63, t-butyl [(6S)-4-{4′-[({4-[(3-cyano-4-methyl-1H-indol-7-yl)sulfamoyl]phenyl}methyl)carbamoyl][1,1′-biphenyl]-4-yl}-2,3,9-trimethyl-6H-thieno[3,2-f][1,2,4]triazolo[4,3-a][1,4]diazepin-6-yl]acetate] | 0.23 | 0.45
Cc1sc2c(c1C)C(c1ccc(-c3ccc(C(=O)NCc4ccc(S(=O)(=O)Nc5ccc(C)c6c(C#N)c[nH]c56)cc4)cc3)cc1)=N[C@@H](CC#N)c1nnc(C)n1-2 [Example 73, N-({4-[(3-cyano-4-methyl-1H-indol-7-yl)sulfamoyl]phenyl}methyl)-4′-[(6S)-6-(cyanomethyl)-2,3,9-trimethyl-6H-thieno[3,2-f][1,2,4]triazolo[4,3-a][1,4]diazepin-4-yl][1,1-biphenyl]-4-carboxamide] | 0.75 | 1.7
CCc1ccc(NS(=O)(=O)c2ccc([C@@H](C)NC(=O)c3ccc(-c4ccc(C5=N[C@@H](CC(=O)OC)c6nnc(C)n6-c6sc(C)c(C)c65)cc4)cc3C)cc2)c2[nH]cc(C#N)c12 [Example Compound 123, methyl [(6S)-4-(4′-{[(1R)-1-{4-[(3-cyano-4-ethyl-1H-indol-7-yl)sulfamoyl]phenyl}ethyl]carbamoyl}-3′-methyl[1,1′-biphenyl]-4-yl)-2,3,9-trimethyl-6H-thieno[3,2-f][1,2,4]triazolo[4,3-a][1,4]diazepin-6-yl]acetate] | 0.21 | 0.32
CCc1ccc(NS(=O)(=O)c2ccc(CNC(=O)c3ccc(-c4ccc(C5=N[C@@H](CC(=O)OC)c6nnc(C)n6-c6sc(C)c(C)c65)cc4)c(F)c3F)cc2)c2[nH]cc(C#N)c12 [Example Compound 118, methyl [(6S)-4-{4′-[({4-[(3-cyano-4-ethyl-1H-indol-7-yl)sulfamoyl]phenyl}methyl)carbamoyl]-2′,3′-difluoro[1,1′-biphenyl]-4-yl}-2,3,9-trimethyl-6H-thieno[3,2-f][1,2,4]triazolo[4,3-a][1,4]diazepin-6-yl]acetate] | 0.14 | 0.32
COC(=O)C[C@@H]1N=C(c2ccc(-c3ccc(C(=O)NCc4ccc(S(=O)(=O)Nc5ccc(C)c6c(C#N)c[nH]c56)cc4C)cc3)cc2)c2c(sc(C)c2C)-n2c(C)nnc21 [Example 94, methyl [(6S)-4-{4′-[({4-[(3-cyano-4-methyl-1H-indol-7-yl)sulfamoyl]-2-methylphenyl}methyl)carbamoyl][1,1′-biphenyl]-4-yl}-2,3,9-trimethyl-6H-thieno[3,2-f][1,2,4]triazolo[4,3-a][1,4]diazepin-6-yl]acetate] | 0.13 | 0.42
COC(=O)C[C@@H]1N=C(c2ccc(-c3ccc(C(=O)NCCc4ccc(S(=O)(=O)Nc5ccc(C)c6c(C#N)c[nH]c56)cc4)c(F)c3F)cc2)c2c(sc(C)c2C)-n2c(C)nnc21 [Example 100, methyl [(6S)-4-{4′-[(2-{4-[(3-cyano-4-methyl-1H-indol-7-yl)sulfamoyl]phenyl}ethyl)carbamoyl]-2′,3′-difluoro[1,1′-biphenyl]-4-yl}-2,3,9-trimethyl-6H-thieno[3,2-f][1,2,4]triazolo[4,3-a][1,4]diazepin-6-yl]acetate] | 0.085 | 0.16
COC(=O)C[C@@H]1N=C(c2ccc(-c3ccc(C(=O)N[C@H](C)c4ccc(S(=O)(=O)Nc5ccc(C)c6c(C#N)c[nH]c56)cc4)cc3F)cc2)c2c(sc(C)c2C)-n2c(C)nnc21 [Example 85, methyl [(6S)-4-(4′-{[(1R)-1-{4-[(3-cyano-4-methyl-1H-indol-7-yl)sulfamoyl]phenyl}ethyl]carbamoyl}-2′-fluoro[1,1′-biphenyl]-4-yl)-2,3,9-trimethyl-6H-thieno[3,2-f][1,2,4]triazolo[4,3-a][1,4]diazepin-6-yl]acetate] | 0.074 | 0.26
CCc1ccc(NS(=O)(=O)c2ccc(CCNC(=O)c3ccc(-c4ccc(C5=N[C@@H](CC(=O)OC(C)(C)C)c6nnc(C)n6-c6sc(C)c(C)c65)cc4)cc3)cc2)c2[nH]cc(C#N)c12 [Example Compound 137, t-butyl [(6S)-4-{4′-[(2-{4-[(3-cyano-4-ethyl-1H-indol-7-yl)sulfamoyl]phenyl}ethyl)carbamoyl][1,1′-biphenyl]-4-yl}-2,3,9-trimethyl-6H-thieno[3,2-f][1,2,4]triazolo[4,3-a][1,4]diazepin-6-yl]acetate] | 0.13 | 0.48
COC(=O)NC1N=C(c2ccc(-c3ccc(C(=O)NCc4ccc(S(=O)(=O)Nc5ccc(C)c6c(C#N)c[nH]c56)cc4)cc3)cc2)c2c(sc(C)c2C)-n2c(C)nnc21 (stereo not shown) [Example 36, methyl (4-{4′-[({4-[(3-cyano-4-methyl-1H-indol-7-yl)sulfamoyl]phenyl}methyl)carbamoyl][1,1′-biphenyl]-4-yl}-2,3,9-trimethyl-6H-thieno[3,2-f][1,2,4]triazolo[4,3-a][1,4]diazepin-6-yl)carbamate] | 0.41 | 1.4
COC(=O)C[C@@H]1N=C(c2ccc(C3=CCN(C(=O)NCc4ccc(S(=O)(=O)Nc5ccc(C)c6c(C#N)c[nH]c56)cc4)CC3)cc2)c2c(sc(C)c2C)-n2c(C)nnc21 [Example 21, methyl [(6S)-4-(4-{1-[({4-[(3-cyano-4-methyl-1H-indol-7-yl)sulfamoyl]phenyl}methyl)carbamoyl]-1,2,3,6-tetrahydropyridin-4-yl}phenyl)-2,3,9-trimethyl-6H-thieno[3,2-f][1,2,4]triazolo[4,3-a][1,4]diazepin-6-yl]acetate] | 6.7 | 9.8
COC(=O)C[C@@H]1N=C(c2ccc(-c3ccc(C(=O)N[C@H](C)c4ccc(S(=O)(=O)Nc5ccc(C)c6c(C#N)c[nH]c56)cc4)cc3)cc2)c2c(sc(C)c2C)-n2c(C)nnc21 [Example 26, methyl [(6S)-4-(4′-{[(1R)-1-{4-[(3-cyano-4-methyl-1H-indol-7-yl)sulfamoyl]phenyl}ethyl]carbamoyl}[1,1′-biphenyl]-4-yl)-2,3,9-trimethyl-6H-thieno[3,2-f][1,2,4]triazolo[4,3-a][1,4]diazepin-6-yl]acetate] | 0.14 | 0.1

Continued, in another order:

DC50 (BRD4 protein) [nM] | SMILES | IC50 [1] [nM]
0.13 | COC(=O)C[C@@H]1N=C(c2ccc(-c3ccc(C(=O)NCc4ccc(S(=O)(=O)Nc5ccc(C)c6c(C#N)c[nH]c56)cc4)c(C)c3)cc2)c2c(sc(C)c2C)-n2c(C)nnc21 [Example 50, methyl [(6S)-4-{4′-[({4-[(3-cyano-4-methyl-1H-indol-7-yl)sulfamoyl]phenyl}methyl)carbamoyl]-3′-methyl[1,1′-biphenyl]-4-yl}-2,3,9-trimethyl-6H-thieno[3,2-f][1,2,4]triazolo[4,3-a][1,4]diazepin-6-yl]acetate] | 0.23
2.7 | COC(=O)C[C@@H]1N=C(c2ccc(-c3ccc4oc(C(=O)NCc5ccc(S(=O)(=O)Nc6ccc(C)c7c(C#N)c[nH]c67)cc5)cc4c3)cc2)c2c(sc(C)c2C)-n2c(C)nnc21 [Example 35, methyl [(6S)-4-(4-{2-[({4-[(3-cyano-4-methyl-1H-indol-7-yl)sulfamoyl]phenyl}methyl)carbamoyl]-1-benzofuran-5-yl}phenyl)-2,3,9-trimethyl-6H-thieno[3,2-f][1,2,4]triazolo[4,3-a][1,4]diazepin-6-yl]acetate] | 7.2
0.25 | Cc1sc2c(c1C)C(c1ccc(-c3ccc(C(=O)NCc4ccc(S(=O)(=O)Nc5ccc(C)c6c(C#N)c[nH]c56)cc4)c(F)c3)cc1)=N[C@@H](CC(=O)OC(C)(C)C)c1nnc(C)n1-2 [Example Compound 139, t-butyl [(6S)-4-{4′-[({4-[(3-cyano-4-methyl-1H-indol-7-yl)sulfamoyl]phenyl}methyl)carbamoyl]-3′-fluoro[1,1′-biphenyl]-4-yl}-2,3,9-trimethyl-6H-thieno[3,2-f][1,2,4]triazolo[4,3-a][1,4]diazepin-6-yl]acetate] | 0.45
0.41 | COC(=O)C[C@@H]1N=C(c2ccc(-c3ccc(C(=O)NCCc4ccc(S(=O)(=O)Nc5ccc(C)c6c(C#N)c[nH]c56)cc4)c(Cl)c3)cc2)c2c(sc(C)c2C)-n2c(C)nnc21 [Example 41, methyl [(6S)-4-{3′-chloro-4′-[(2-{4-[(3-cyano-4-methyl-1H-indol-7-yl)sulfamoyl]phenyl}ethyl)carbamoyl][1,1′-biphenyl]-4-yl}-2,3,9-trimethyl-6H-thieno[3,2-f][1,2,4]triazolo[4,3-a][1,4]diazepin-6-yl]acetate] | 1.1
0.3 | COC(=O)C[C@@H]1N=C(c2ccc(-c3ccc(C(=O)NCc4ccc(S(=O)(=O)Nc5ccc(C)c6c(C#N)c[nH]c56)cc4)c(OC)c3)cc2)c2c(sc(C)c2C)-n2c(C)nnc21 [Example 52, methyl [(6S)-4-{4′-[({4-[(3-cyano-4-methyl-1H-indol-7-yl)sulfamoyl]phenyl}methyl)carbamoyl]-3′-methoxy[1,1′-biphenyl]-4-yl}-2,3,9-trimethyl-6H-thieno[3,2-f][1,2,4]triazolo[4,3-a][1,4]diazepin-6-yl]acetate] | 0.55
0.19 | COC(=O)C[C@@H]1N=C(c2ccc(-c3ccc(C(=O)NCCc4ccc(S(=O)(=O)Nc5ccc(C)c6c(C#N)c[nH]c56)cc4)c(F)c3)cc2)c2c(sc(C)c2C)-n2c(C)nnc21 [Example 40, methyl [(6S)-4-{4′-[(2-{4-[(3-cyano-4-methyl-1H-indol-7-yl)sulfamoyl]phenyl}ethyl)carbamoyl]-3′-fluoro[1,1′-biphenyl]-4-yl}-2,3,9-trimethyl-6H-thieno[3,2-f][1,2,4]triazolo[4,3-a][1,4]diazepin-6-yl]acetate] | 0.42
